Consider 18 molecules from patent US12208110B2 (priority 2020, dated 2025).

Common to all, as to format: cell-based
The nature of data set [1]: MT4 cytotoxicity analysis (CellTiter-Glo). Conditions: human. The procedure, abridged: (§1)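 MT-4 cells were exposed in quadruplicate to 3-fold serial compound dilutions (DMSO stocks 2.5 uM to 10 mM) for five days at 37 °C. Viability was read by CellTiter-Glo luminescence.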
In general terms: In ATP-based viability assays light output follows the ATP content of the culture.

A further data set relates to SARS-CoV-2. In words: microbe, parasite or virus in culture. Conditions: Severe acute respiratory syndrome coronavirus 2, 48 h.
The subject of data set [2] is RSV-Fluc (Recombinant Respiratory Syncytial virus strain A2 containing the firefly luciferase reporter). Briefly: microbe, parasite or virus in culture. Conditions: human respiratory syncytial virus, NHBE, 72 h, read-out: RSV-Fluc EC50 (nM, NHBE).
The next data set deals with MT-4 cells. Briefly: MT4 cytotoxicity analysis (CellTiter-Glo). Conditions: human, 5 days. The essentials: as §1

Like-named read-outs stand apart in the source and are kept apart here.

Take `CCCCCCCCCCCCCCCCCCOC[C@H](COP(=O)(O)OC[C@H]1O[C@@](C#N)(c2ccc3c(N)ncnn23)[C@H](O)[C@@H]1O)OCc1cncc(S(C)(=O)=O)c1` [Example 43, ((2R,3S,4R,5R)-5-(4-aminopyrrolo[2,1-f][1,2,4]triazin-7-yl)-5-cyano-3,4-dihydroxytetrahydrofuran-2-yl)methyl ((R)-2-((5-(methylsulfonyl)pyridin-3-yl)methoxy)-3-(octadecyloxy)propyl) hydrogen phosphate]: the CC50 (commonly the concentration that lowers cell viability or growth by half) at 5 days in data set [1] (MT4 CC50 (nM)) was 280 nM. Moreover, the EC50 (as a rule, the midpoint of the concentration-response curve) in the data set with SARS-CoV-2 turned out to be 79 nM; in data set [2], 59 nM.

The molecule `CCCCCCCCCCCCCCCCCC(=O)NC[C@H](COP(=O)(O)OC[C@H]1O[C@@](C#N)(c2ccc3c(N)ncnn23)[C@H](O)[C@@H]1O)OCc1cc(F)cc(C#N)c1` [Example 45, ((2R,3S,4R,5R)-5-(4-aminopyrrolo[2,1-f][1,2,4]triazin-7-yl)-5-cyano-3,4-dihydroxytetrahydrofuran-2-yl)methyl ((R)-2-((3-cyano-5-fluorobenzyl)oxy)-3-stearamidopropyl) hydrogen phosphate] registered a CC50 at 5 days in data set [1] (MT4 CC50 (nM)) of 950 nM. For the same molecule, the EC50 with SARS-CoV-2 is 140 nM; in data set [2], 82 nM.

In turn, `CCCCCCCCCCCCCCCCCCOC[C@H](COc1ccc(C#N)nn1)OP(=O)(O)OC[C@H]1O[C@@](C#N)(c2ccc3c(N)ncnn23)[C@H](O)[C@@H]1O` [Example 46, ((2R,3S,4R,5R)-5-(4-aminopyrrolo[2,1-f][1,2,4]triazin-7-yl)-5-cyano-3,4-dihydroxytetrahydrofuran-2-yl)methyl ((R)-1-((6-cyanopyridazin-3-yl)oxy)-3-(octadecyloxy)propan-2-yl) hydrogen phosphate] showed a CC50 at 5 days in data set [1] (MT4 CC50 (nM)) of 420 nM. In addition, the results for the EC50 (with SARS-CoV-2; in data set [2]) were 120 nM and 26 nM, respectively.

In turn, `CCCCCCCCCCCCCCCCCCNC(=O)[C@H](COP(=O)(O)OC[C@H]1O[C@@](C#N)(c2ccc3c(N)ncnn23)[C@H](O)[C@@H]1O)OCc1cc(F)cc(C#N)c1` [Example 47, ((2R,3S,4R,5R)-5-(4-aminopyrrolo[2,1-f][1,2,4]triazin-7-yl)-5-cyano-3,4-dihydroxytetrahydrofuran-2-yl)methyl ((S)-2-((3-cyano-5-fluorobenzyl)oxy)-3-(octadecylamino)-3-oxopropyl) hydrogen phosphate] showed a CC50 at 5 days in data set [1] (MT4 CC50 (nM)) of 420 nM. Moreover, the EC50 in the data set with SARS-CoV-2 amounted to 120 nM; in data set [2] it was 32 nM.

The molecule `CCCCCCCCCCCCCCCCCCOC[C@H](COP(=O)(O)OC[C@H]1O[C@@](C#N)(c2ccc3c(N)ncnn23)[C@H](O)[C@@H]1O)NC(=O)c1ccccc1C#N` [Example 58, ((2R,3S,4R,5R)-5-(4-aminopyrrolo[2,1-f][1,2,4]triazin-7-yl)-5-cyano-3,4-dihydroxytetrahydrofuran-2-yl)methyl ((R)-2-(2-cyanobenzamido)-3-(octadecyloxy)propyl) hydrogen phosphate] registered a CC50 at 5 days in data set [1] (MT4 CC50 (nM)) of 43000 nM. The EC50 in the data set on SARS-CoV-2 turned out to be 5100 nM; in data set [2], 300 nM.

In data set [1] (MT4 CC50 (nM)), `CCCCCCCCCCCCCCOCCOP(=O)(O)OC[C@H]1O[C@@](C#N)(c2ccc3c(N)ncnn23)[C@H](O)[C@@H]1O` [Example 59, [(2R,3S,4R,5R)-5-(4-Aminopyrrolo[2,1-f][1,2,4]triazin-7-yl)-5-cyano-3,4-dihydroxy-tetrahydrofuran-2-yl]methyl 2-tetradecoxyethyl hydrogen phosphate] came in with a CC50 at 5 days of 16000 nM. In addition, the EC50 with SARS-CoV-2 came to 10000 nM; in data set [2] it was 170 nM.

Take `CCCCCCCCCCCCCCCCCOCCOP(=O)(O)OC[C@H]1O[C@@](C#N)(c2ccc3c(N)ncnn23)[C@H](O)[C@@H]1O` [Example 60, [(2R,3S,4R,5R)-5-(4-aminopyrrolo[2,1-f][1,2,4]triazin-7-yl)-5-cyano-3,4-dihydroxy-tetrahydrofuran-2-yl]methyl 2-heptadecoxyethyl hydrogen phosphate]: the 50% cytotoxic concentration (CC50) at 5 days in data set [1] (MT4 CC50 (nM)) was 4800 nM. Moreover, the EC50 with SARS-CoV-2 was 2000 nM; in data set [2] it was 240 nM.

As for `CCCCCCCCCCCCCCSCCCOP(=O)(O)OC[C@H]1O[C@@](C#N)(c2ccc3c(N)ncnn23)[C@H](O)[C@@H]1O` [Example 61, [(2R,3S,4R,5R)-5-(4-aminopyrrolo[2,1-f][1,2,4]triazin-7-yl)-5-cyano-3,4-dihydroxy-tetrahydrofuran-2-yl]methyl 3-tetradecylsulfanylpropyl hydrogen phosphate], the CC50 at 5 days in data set [1] (MT4 CC50 (nM)) was 12000 nM. For the same molecule, the results for the EC50 (in the data set on SARS-CoV-2; in data set [2]) were 6100 nM and 200 nM, respectively.

In the case of `CCCCCCCCCCCCCCCCCSCCCOP(=O)(O)OC[C@H]1O[C@@](C#N)(c2ccc3c(N)ncnn23)[C@H](O)[C@@H]1O` [Example 62, [(2R,3S,4R,5R)-5-(4-Aminopyrrolo[2,1-f][1,2,4]triazin-7-yl)-5-cyano-3,4-dihydroxy-tetrahydrofuran-2-yl]methyl 3-heptadecylsulfanylpropyl hydrogen phosphate], the midpoint of cytotoxicity in data set [1] (MT4 CC50 (nM)), the CC50 at 5 days, lay at 24000 nM. The EC50 in the data set on SARS-CoV-2 turned out to be 9800 nM; in data set [2], 230 nM.

Molecule `CCCCCCCCCCCCCCCCCCOC[C@H](COP(=O)(O)OC[C@H]1O[C@@](C#N)(c2ccc3c(N)ncnn23)[C@H](O)[C@@H]1O)OCc1ccc(F)c(Cl)c1F` [Example 64, [(2R,3S,4R,5R)-5-(4-Aminopyrrolo[2,1-f][1,2,4]triazin-7-yl)-5-cyano-3,4-dihydroxy-tetrahydrofuran-2-yl]methyl [(2R)-2-[(3-chloro-2,4-difluoro-phenyl)methoxy]-3-octadecoxy-propyl] hydrogen phosphate] showed a CC50 at 5 days in data set [1] (MT4 CC50 (nM)) of 3100 nM. The EC50 with SARS-CoV-2 was found to be 400 nM; in data set [2] it was 86 nM.

Regarding `CCCCCCCCCCCCCCCCSCCCOP(=O)(O)OC[C@H]1O[C@@](C#N)(c2ccc3c(N)ncnn23)[C@H](O)[C@@H]1O` [Example 65, [(2R,3S,4R,5R)-5-(4-Aminopyrrolo[2,1-f][1,2,4]triazin-7-yl)-5-cyano-3,4-dihydroxy-tetrahydrofuran-2-yl]methyl 3-hexadecylsulfanylpropyl hydrogen phosphate], the CC50 in the data set on MT-4 cells was 50000 nM.

Turning to `CCCCCCCCCCCCCCCCCCOC[C@H](CO[P@](O)(=S)OC[C@H]1O[C@@](C#N)(c2ccc3c(N)ncnn23)[C@H](O)[C@@H]1O)OCc1cc(F)cc(C#N)c1` [Example 68], in data set [1] (MT-4 cells, five days, CellTiter-Glo, read-out: MT4 CC50), the CC50 at 5 days came out at 670 nM. For the same molecule, the EC50 with SARS-CoV-2 was 360 nM; in data set [2], 120 nM.

`CCCCCCCCCCCCCCCCCCC[C@H](COCc1ccc(C#N)cc1F)OP(=O)(O)OC[C@H]1O[C@@](C#N)(c2ccc3c(N)ncnn23)[C@H](O)[C@@H]1O` [Example 69, ((2R,3S,4R,5R)-5-(4-aminopyrrolo[2,1-f][1,2,4]triazin-7-yl)-5-cyano-3,4-dihydroxytetrahydrofuran-2-yl)methyl ((R)-1-((4-cyano-2-fluorobenzyl)oxy)henicosan-2-yl) hydrogen phosphate]: in data set [1] (MT4 CC50 (nM)), it took 48000 nM to reach half-maximal cytotoxicity (CC50 at 5 days). Moreover, the EC50 was 10000 nM in the data set on SARS-CoV-2 and 400 nM in data set [2].

In data set [1] (MT4 CC50 (nM)), `CCCCCCCCCCCCCCCCCCC[C@H](COP(=O)(O)OC[C@H]1O[C@@](C#N)(c2ccc3c(N)ncnn23)[C@H](O)[C@@H]1O)OCc1ccc(C#N)c(F)c1` [Example 71, ((2R,3S,4R,5R)-5-(4-aminopyrrolo[2,1-f][1,2,4]triazin-7-yl)-5-cyano-3,4-dihydroxytetrahydrofuran-2-yl)methyl ((R)-2-((4-cyano-3-fluorobenzyl)oxy)henicosyl) hydrogen phosphate] returned a CC50 at 5 days of 900 nM. In addition, the half-maximal effective concentration (EC50) in the data set on SARS-CoV-2 stood at 79 nM; in data set [2] it was 68 nM.

In the case of `CCCCCCCCCCCCCCCCCCC[C@H](COP(=O)(O)OC[C@H]1O[C@@](C#N)(c2ccc3c(N)ncnn23)[C@H](O)[C@@H]1O)OCc1ccccc1` [Example 72, ((2R,3S,4R,5R)-5-(4-aminopyrrolo[2,1-f][1,2,4]triazin-7-yl)-5-cyano-3,4-dihydroxytetrahydrofuran-2-yl)methyl ((R)-2-(benzyloxy)henicosyl) hydrogen phosphate], the midpoint of cytotoxicity in data set [1] (MT4 CC50 (nM)), the CC50 at 5 days, lay at 3800 nM. Besides, the EC50 in the data set on SARS-CoV-2 is 1100 nM; in data set [2], 190 nM.

In turn, `CCCCCCCCCCCCCCC#CC[C@H](COP(=O)(O)OC[C@H]1O[C@@](C#N)(c2ccc3c(N)ncnn23)[C@H](O)[C@@H]1O)OCc1ccccc1` [Example 73, ((2R,3S,4R,5R)-5-(4-aminopyrrolo[2,1-f][1,2,4]triazin-7-yl)-5-cyano-3,4-dihydroxytetrahydrofuran-2-yl)methyl ((R)-2-(benzyloxy)nonadec-4-yn-1-yl) hydrogen phosphate] returned a CC50 at 5 days in data set [1] (MT4 CC50 (nM)) of 3500 nM. The EC50 amounted to 430 nM in the data set with SARS-CoV-2 and 58 nM in data set [2].

In data set [1] (MT4 CC50 (nM)), `CCCCCCCCCCCCCCC#CC[C@H](COP(=O)(O)OC[C@H]1O[C@@](C#N)(c2ccc3c(N)ncnn23)[C@H](O)[C@@H]1O)OCc1cc(F)cc(C#N)c1` [Example 74, ((2R,3S,4R,5R)-5-(4-aminopyrrolo[2,1-f][1,2,4]triazin-7-yl)-5-cyano-3,4-dihydroxytetrahydrofuran-2-yl)methyl ((R)-2-((3-cyano-5-fluorobenzyl)oxy)nonadec-4-yn-1-yl) hydrogen phosphate] yielded a CC50 at 5 days of 300 nM. Moreover, the EC50 in the data set on SARS-CoV-2 came out at 190 nM; in data set [2], 24 nM.

In data set [1] (MT4 CC50 (nM)), `CCCCCCCCCCCCCCC#CC[C@H](COP(=O)(O)OC[C@H]1O[C@@](C#N)(c2ccc3c(N)ncnn23)[C@H](O)[C@@H]1O)OCc1ccc(C#N)c(F)c1` [Example 75, ((2R,3S,4R,5R)-5-(4-aminopyrrolo[2,1-f][1,2,4]triazin-7-yl)-5-cyano-3,4-dihydroxytetrahydrofuran-2-yl)methyl ((R)-2-((4-cyano-3-fluorobenzyl)oxy)nonadec-4-yn-1-yl) hydrogen phosphate] gave a CC50 at 5 days of 230 nM. Further, the EC50 in the data set on SARS-CoV-2 was 72 nM; in data set [2] it was 17 nM.
